Measured values published in patent publication US20240165083A1, “TASIPIMIDINE FORMULATIONS AND USE THEREOF” (ORION CORPORATION, priority 2021, published 2024).

Legend:
Assay type in all cases: in vivo, dog
[1] = tested on: dogs; experiment: Clinical safety in the three clinical field studies in dogs; settings: 30 μg/kg orally
Method: (§1) Three randomized, double-blind, placebo-controlled, clinical field studies were conducted for evaluating the effectiveness and clinical safety of tasipimidine for the treatment of situational anxiety and fear-based behaviors in dogs triggered by events such as travel, noise, or owner departure. Across all three studies dogs were randomized to receive either 0.03 mg/kg of tasipimidine (n=131) or placebo (n=133) orally at home by the owner. Assessments were made using video (in the case of when left alone or car travel) or by the caretaker present during the fear inducing incident (in the case of noise anxiety). Both were assessed using a numerical rating scale with scores 1-5.

[2] = tested on: client-owned dogs suffering from separation anxiety; experiment: Clinical field study in dogs: separation anxiety; settings: 30 μg/kg orally 1-3 times a day as needed, 5-7 days a week for 5 weeks
Method: as §1
The second study was conducted in client-owned dogs suffering from separation anxiety. Dogs received tasipimidine 30 μg/kg or placebo 1-3 times a day as needed 5-7 days a week for 5 weeks. The primary efficacy variable was the owner's assessment of the effect of the study treatment on acute anxiety related to the owner's departure. Dog owners assessed the effect of the study treatment on their dog's signs of separation anxiety from video recordings after returning home. The owner also took into account the signs of the dog's behavior during the separation (e.g., destruction and elimination) that were not visible in the video recording.

[3] = tested on: client-owned dogs with a history of acute anxiety and fear associated with noise due to fireworks; experiment: Clinical field study in dogs: noise anxiety (fireworks); settings: 30 μg/kg orally 1-3 times as needed, New Year's Eve
Method: as §1
The first study was conducted in client-owned dogs with a history of acute anxiety and fear associated with noise due to fireworks. Dogs receive tasipimidine 30 μg/kg or placebo 1-3 times as needed with at least 3 hours between doses during New Year's Eve. The primary efficacy variable was the owner's assessment of the effect of study treatment on the dog's signs of acute anxiety and fear due to fireworks. The assessment was made once at least 2 hours after the last dose or at 1:00 A.M., whichever occurred later.

[4] = tested on: client-owned dogs suffering from travel anxiety; experiment: Clinical field study in dogs: travel anxiety; settings: single oral dose 30 μg/kg approximately 1 hour before car travel
Method: as §1
The third study was conducted in client-owned dogs suffering from travel anxiety. Dogs received a single dose of tasipimidine 30 μg/kg or placebo approximately 1 hour before car travel. The primary efficacy variable was the external observer's assessment of signs of anxiety and fear from video recordings. The owner assessed the treatment effect based on the dog's behavior during the first 10 minutes of car travel.

COc1cccc2c1CCOC2C1=NCCN1 (stereo not shown) [Tasipimidine, 2-(5-methoxyisochroman-1-yl)-4,5-dihydro-1H-imidazole]
marked ataxia or clinical sedation [1]: did not produce marked ataxia or clinical sedation | treatment effect compared with placebo: owner's assessment of acute anxiety related to the owner's departure [2]: statistically significant treatment effect in favor of tasipimidine | treatment effect compared with placebo: owner's assessment of signs of acute anxiety and fear due to fireworks [3]: statistically significant treatment effect in favor of tasipimidine | treatment effect compared with placebo: external observer's assessment of signs of anxiety and fear from video recordings [4]: statistically significant treatment effect in favor of tasipimidine
